Assay results from patent US10898570B2, “Combination therapy with an anti-HER2 antibody-drug conjugate and a Bcl-2 inhibitor” (Genentech, Inc., priority 2015, dated 2021).

Legend:
[1] = test system: Clone #17 T-DM1 resistant KPL-4 human breast cancer xenografts; test: xenograft study, tumor volume; type: in vivo, SCID beige mice
From the text: For all xenograft studies, three million T-DM1-resistant KPL-4 breast cancer cells were implanted in #2/3 mammary fat pads of female SCID-beige mice. […] The results of these xenograft studies for xenografts of various clones of the T-DM1-resistant KPL-4 breast cancer cells are shown in FIGS. 5B and 6C.

[2] = cited from earlier work
KPL-4 parental cells = test: caspase 3/7 activation luminescence assay (Caspase-Glo); type: cell-based, human
Experimental: (§1) In the present experiment, caspase 3/7 activation luminescence assay was performed using the Caspase-Glo® reagent (Promega) essentially following manufacturer's instructions. […]

[3] = test system: T-DM1-resistant KPL-4 (HER2+) breast cancer cells; test: as above; type: cell-based, human; conditions: 48 hours; T-DM1 0.1 or 1 μg/mL; GDC-0199 1, 2.5 or 5 μM
Experimental: as §1

[4] = test system: Clone #17 T-DM1 resistant KPL-4 human breast cancer cell line; test: as above; type: cell-based; conditions: 48 hours; 1 ug/mL T-DM1 alone or with indicated doses of GDC-0199
Experimental: as §1

[5] = test system: HER2+ HCC1569 breast cancer cells (T-DM1 naive); test: caspase 3/7 activation luminescent in vitro apoptosis assay; type: cell-based; conditions: 24 hours; five concentrations of GDC-0199, 9 concentrations of T-DM1
Experimental: (§2) In the present experiment, caspase 3/7 activation luminescence assay was performed using the Caspase-Glo® reagent (Promega) essentially following manufacturer's instructions. Assays were performed in the same manner as the viability assays except that drug incubation times were 24 hours and Caspase-Glo 3/7 (Promega) was used to measure apoptosis.
(§3) Caspase 3/7 activation luminescence assay was performed as described in Example 3.

[6] = test system: HER2+ MDA-MB-361 breast cancer cells (T-DM1 naive); test: as above; type: cell-based; conditions: 24 hours; five concentrations of GDC-0199, 9 concentrations of T-DM1
Experimental: as §2, §3

Bcl-2 = conditions: T-DM1 1.25 μg/mL; cell lines BT-474, MDA_361 and ZR-75-30
Experimental: Western blot analysis was performed as follows: Cells were lysed in corrected FLAG elution buffer (CFEB) (19.17 mM Tris (pH 7.5), 916.7 μM MgCl2, 92.5 mM NaCl and 0.1% Triton X-100) with protease and phosphatase inhibitors (Roche); in some cases 6 M urea was added. Cleared lysates were quantitated and equal amounts of proteins were reduced, alkylated, separated by SDS-PAGE, and transferred onto PVDF membranes (Invitrogen) following standard procedures. Western blotting was performed as recommended by the respective antibody manufacturers.
The effect of treatment with T-DM1 (1.25 μg/mL) alone or in combination with GDC-0199 (1.25 μM) was studied on various T-DM1 naïve HER2+ breast cancer cell lines.

[7] = weekly dosing with 2.4 mg/kg; cited from earlier work

For `CC1(C)CCC(CN2CCN(c3ccc(C(=O)NS(=O)(=O)c4ccc(NCC5CCOCC5)c([N+](=O)[O-])c4)c(Oc4cnc5[nH]ccc5c4)c3)CC2)=C(c2ccc(Cl)cc2)C1` [GDC-0199, 2-(1H-pyrrolo[2,3-b]pyridin-5-yloxy)-4-(4-((2-(4-chlorophenyl)-4,4-dimethylcyclohex-1-enyl)methyl)piperazin-1-yl)-N-(3-nitro-4-((tetrahydro-2H-pyran-4-yl)methylamino)phenylsulfonyl)benzamide], the “tumor growth (tumor volume)” value ([1]; 100 mg/kg) was “no activity”.
In the case of `COc1cc2cc(c1Cl)N(C)C(=O)C[C@H](OC(=O)[C@H](C)N(C)C(C)=O)[C@]1(C)O[C@H]1[C@H](C)[C@@H]1C[C@@](O)(NC(=O)O1)[C@H](OC)/C=C/C=C(\C)C2` [maytansine], the “dose-limiting toxicity (DLT)” value ([2]; 2.0 mg/m2 every 3 weeks, single dose or 3 consecutive days) is given as “gastrointestinal” and the “activity in the clinic” value ([2]; at doses that could be safely delivered) is given as “modest”.
In the case of trastuzumab-MCC-DM1 [T-DM1], the “activation of caspases 3 and 7 (apoptosis)” value (“activation” below) (KPL-4 parental cells; 24 hours of drug treatment) is reported as “no effect”, the “activation” value (KPL-4 parental cells; 48 hours, T-DM1 0.1 or 1 μg/mL, GDC-0199 1, 2.5 or 5 μM) is reported as “robust activation” and the “activation” value [3] is reported as “minimal effect”. The “activation” value [4] was “minimal effect”, the “tumor growth (tumor volume)” value ([1]; T-DM1 5 mg/kg administered once, GDC-0199 100 mg/kg qd×21) was “no activity” and the “caspase 3/7 activity (apoptosis)” value [5] was “does not induce apoptosis”. For the same molecule, the “caspase 3/7 activity (apoptosis)” value [6] was “caspases 3 and 7 activation”, the “phosphorylation of Bcl-2 after treatment (Western blot)” value (Bcl-2) was “phosphorylation of Bcl-2” and the anti-tumor activity [7] was “anti-tumor activity”.
